Reference: ChEMBL document CHEMBL1201862, “PubChem BioAssay data set” (2004)
The source made the active and inactive calls.

Legend:
[1] = biological target: Heat shock protein HSP 90-alpha (Homo sapiens, UniProt P07900); format: functional, organism-based
[2] = inhibitors of HIV Env-driven cell fusion, dose response, cherry-pick (AID 652057); format: functional, cell-based
[3] = inhibitors of clade B AD8 Env fusion, dose response, cell-based, cherry-pick (AID 652062); format: functional;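 further: luciferase signal from cell-cell fusion driven by HIV-1 clade B AD8 Env; potency is for inhibitors of fusion seen as a drop in luminescence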
[4] = biological target: T1, RNA-binding protein pos-1 (Caenorhabditis elegans, UniProt G5EF15); experiment: inhibitors of POS-1/mex-3 RNA binding, dose response, biochemical, fluorescence polarization (AID 1964);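 further: purified POS-1 fused to maltose binding protein made in E. coli; potency of compounds blocking POS-1 binding to fluorescent RNA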
T1 sequence (G5EF15 whole entry): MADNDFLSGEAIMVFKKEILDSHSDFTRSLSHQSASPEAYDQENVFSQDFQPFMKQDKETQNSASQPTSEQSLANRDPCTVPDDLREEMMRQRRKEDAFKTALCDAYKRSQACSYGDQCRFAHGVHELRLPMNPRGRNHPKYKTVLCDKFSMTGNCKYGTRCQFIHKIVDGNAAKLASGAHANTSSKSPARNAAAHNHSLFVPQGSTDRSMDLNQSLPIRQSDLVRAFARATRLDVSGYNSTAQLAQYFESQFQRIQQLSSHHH

[5] = biological target: T2, Zinc finger protein mex-5 (Caenorhabditis elegans, UniProt Q9XUB2); experiment: MEX-5/TCR-2 RNA interaction inhibitors, dose response, biochemical, C. elegans, fluorescence polarization (AID 1960)
T2 sequence (Q9XUB2 whole entry): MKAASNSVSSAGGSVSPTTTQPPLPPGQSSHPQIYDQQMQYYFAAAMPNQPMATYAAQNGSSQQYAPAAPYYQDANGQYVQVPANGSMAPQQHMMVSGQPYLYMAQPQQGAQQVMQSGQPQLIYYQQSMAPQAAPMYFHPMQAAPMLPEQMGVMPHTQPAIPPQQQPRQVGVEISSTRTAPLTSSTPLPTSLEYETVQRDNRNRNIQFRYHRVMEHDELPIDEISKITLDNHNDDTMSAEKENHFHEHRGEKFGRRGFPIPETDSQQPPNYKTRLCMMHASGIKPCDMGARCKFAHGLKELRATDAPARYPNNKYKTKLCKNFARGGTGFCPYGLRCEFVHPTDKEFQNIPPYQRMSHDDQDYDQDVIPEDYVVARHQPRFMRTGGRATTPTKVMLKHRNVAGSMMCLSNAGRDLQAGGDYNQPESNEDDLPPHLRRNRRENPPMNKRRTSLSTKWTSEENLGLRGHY

[6] = biological target: T3, Polyadenylate-binding protein 1 (Homo sapiens, UniProt P11940); experiment: PABP1 MLLE–PAM2 interaction inhibitors, dose response, miRNA deadenylation inhibitor project, biochemical, fluorescence polarization, Cy5-PAM2 peptide, secondary (AID 602260); format: functional; settings: read-out: IC50_Mean
[7] = biological target: T4, Corticotropin-releasing factor receptor 2/Corticotropin-releasing factor-binding protein (Homo sapiens, UniProt P24387+Q13324); experiment: Dose Response confirmation of uHTS hits for small molecule antagonists of the CRF-binding protein and CRF-R2 receptor complex.; format: functional; settings: read-out: IC50_Mean
T4 sequence (Q13324 whole entry): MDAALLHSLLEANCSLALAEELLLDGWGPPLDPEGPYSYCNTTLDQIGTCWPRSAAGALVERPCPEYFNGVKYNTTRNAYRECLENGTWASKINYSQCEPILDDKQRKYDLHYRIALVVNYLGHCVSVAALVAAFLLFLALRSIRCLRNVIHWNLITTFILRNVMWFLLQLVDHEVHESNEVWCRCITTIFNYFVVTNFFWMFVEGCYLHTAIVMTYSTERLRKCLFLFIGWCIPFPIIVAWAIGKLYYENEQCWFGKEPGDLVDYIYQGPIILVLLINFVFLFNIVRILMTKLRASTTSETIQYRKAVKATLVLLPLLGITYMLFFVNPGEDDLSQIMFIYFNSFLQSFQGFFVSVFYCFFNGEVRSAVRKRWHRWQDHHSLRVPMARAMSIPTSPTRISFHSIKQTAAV
T4 sequence (P24387 whole entry): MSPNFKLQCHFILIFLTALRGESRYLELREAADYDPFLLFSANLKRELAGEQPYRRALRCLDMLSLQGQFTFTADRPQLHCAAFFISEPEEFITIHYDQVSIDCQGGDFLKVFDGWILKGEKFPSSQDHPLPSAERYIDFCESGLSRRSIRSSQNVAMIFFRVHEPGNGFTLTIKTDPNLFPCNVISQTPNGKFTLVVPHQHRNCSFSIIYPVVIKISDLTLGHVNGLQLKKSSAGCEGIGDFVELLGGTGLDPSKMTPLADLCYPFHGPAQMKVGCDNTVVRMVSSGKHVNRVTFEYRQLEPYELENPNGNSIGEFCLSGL

[8] = biological target: T3, Polyadenylate-binding protein 1; experiment: PABP1 MLLE–PAM2 binding inhibitor potency, dose response, biochemical, fluorescence polarization, FITC-PAM2 peptide (AID 602259); format: functional; settings: read-out: IC50_Mean
[9] = biological target: T4, Corticotropin-releasing factor receptor 2/Corticotropin-releasing factor-binding protein; experiment: activators of CRF receptor 2 with binding protein – uHTS hits, confirmation (AID 602473); format: functional; settings: read-out: EC50_Mean
Cytochrome P450 1A2 = biological target: T5, Cytochrome P450 1A2 (Homo sapiens, UniProt P05177);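 further: PubChem cytochrome P450 panel assay, CYP1A2 panel member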
T5 sequence (P05177 whole entry): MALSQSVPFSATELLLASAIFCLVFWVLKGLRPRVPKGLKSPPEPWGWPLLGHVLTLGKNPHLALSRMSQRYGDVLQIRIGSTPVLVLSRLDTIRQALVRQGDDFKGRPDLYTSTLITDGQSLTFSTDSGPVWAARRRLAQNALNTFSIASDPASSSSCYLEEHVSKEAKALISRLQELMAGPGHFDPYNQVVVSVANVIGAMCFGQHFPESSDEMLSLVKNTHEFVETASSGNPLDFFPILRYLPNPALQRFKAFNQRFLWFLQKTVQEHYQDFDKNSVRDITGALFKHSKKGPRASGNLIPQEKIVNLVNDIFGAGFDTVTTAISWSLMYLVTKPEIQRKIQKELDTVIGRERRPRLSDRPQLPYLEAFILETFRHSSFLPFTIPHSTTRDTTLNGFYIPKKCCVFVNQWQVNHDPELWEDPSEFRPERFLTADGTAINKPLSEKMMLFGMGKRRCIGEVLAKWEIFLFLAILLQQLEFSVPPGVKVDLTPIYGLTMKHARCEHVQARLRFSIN

Cytochrome P450 2C9 = Cytochrome P450 2C9 (Homo sapiens, UniProt P11712)
P388/ADR = experiment: cells; format: functional; settings: Mus musculus
SN12K1 = experiment: cells; format: functional; settings: Homo sapiens
P388 = experiment: cells; format: functional; settings: Mus musculus
Genome polyprotein = Genome polyprotein (dengue virus type 2, UniProt P29990); experiment: Dengue-2 NS5 methyltransferase inhibitors, primary screen, biochemical, confirmation dose response (AID 588689); format: functional
[10] = biological target: T6, Carboxy-terminal domain RNA polymerase II polypeptide A small phosphatase 1 (Homo sapiens, UniProt Q9GZU7); experiment: inhibitors of CTDSP1, concentration-response testing, biochemical assay, absorbance-based, actives from ultra-high-throughput screening (AID 540297); format: functional
T6 sequence (Q9GZU7 whole entry): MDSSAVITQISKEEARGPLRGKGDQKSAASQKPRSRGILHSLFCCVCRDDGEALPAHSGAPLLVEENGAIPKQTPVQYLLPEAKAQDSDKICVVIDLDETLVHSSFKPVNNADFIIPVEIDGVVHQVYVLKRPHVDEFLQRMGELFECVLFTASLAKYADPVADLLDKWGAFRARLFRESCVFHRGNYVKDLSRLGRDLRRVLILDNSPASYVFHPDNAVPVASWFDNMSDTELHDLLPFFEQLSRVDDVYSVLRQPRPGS

Cytochrome P450 2C19 = Cytochrome P450 2C19 (Homo sapiens, UniProt P33261); experiment: Cytochrome panel assay with activity outcomes. Panel member name: p450-cyp2c19 Compounds with AC50 equal or less than 10 uM are considered active; format: functional; settings: read-out: AC50
Large T antigen = Large T antigen (Simian virus 40, UniProt P03070); format: functional, Betapolyomavirus macacae;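 further: Confirmatory-stage PubChem screen for compounds that inhibit SV40 T antigen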
Sequence of Large T antigen (P03070 whole entry): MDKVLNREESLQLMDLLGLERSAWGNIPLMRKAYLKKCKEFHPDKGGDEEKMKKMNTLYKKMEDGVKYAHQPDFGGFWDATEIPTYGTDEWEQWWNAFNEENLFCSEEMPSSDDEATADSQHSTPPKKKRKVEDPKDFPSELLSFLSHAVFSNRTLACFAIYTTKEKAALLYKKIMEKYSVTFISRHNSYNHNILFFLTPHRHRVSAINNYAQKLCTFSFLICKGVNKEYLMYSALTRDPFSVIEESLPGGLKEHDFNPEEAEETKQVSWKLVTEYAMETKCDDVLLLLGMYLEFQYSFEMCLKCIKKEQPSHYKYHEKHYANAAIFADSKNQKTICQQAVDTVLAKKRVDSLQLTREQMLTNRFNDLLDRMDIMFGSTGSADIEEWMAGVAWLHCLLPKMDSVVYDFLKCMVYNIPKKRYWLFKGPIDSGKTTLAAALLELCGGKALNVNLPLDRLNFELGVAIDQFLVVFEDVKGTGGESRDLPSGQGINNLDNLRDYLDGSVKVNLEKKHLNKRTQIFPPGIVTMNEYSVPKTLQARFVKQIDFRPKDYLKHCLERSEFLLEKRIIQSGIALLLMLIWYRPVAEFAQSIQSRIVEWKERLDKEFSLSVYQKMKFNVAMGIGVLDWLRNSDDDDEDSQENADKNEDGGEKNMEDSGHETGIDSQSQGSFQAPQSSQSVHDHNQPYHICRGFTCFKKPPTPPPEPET

Sequence of Cytochrome P450 2C9 (P11712 whole entry): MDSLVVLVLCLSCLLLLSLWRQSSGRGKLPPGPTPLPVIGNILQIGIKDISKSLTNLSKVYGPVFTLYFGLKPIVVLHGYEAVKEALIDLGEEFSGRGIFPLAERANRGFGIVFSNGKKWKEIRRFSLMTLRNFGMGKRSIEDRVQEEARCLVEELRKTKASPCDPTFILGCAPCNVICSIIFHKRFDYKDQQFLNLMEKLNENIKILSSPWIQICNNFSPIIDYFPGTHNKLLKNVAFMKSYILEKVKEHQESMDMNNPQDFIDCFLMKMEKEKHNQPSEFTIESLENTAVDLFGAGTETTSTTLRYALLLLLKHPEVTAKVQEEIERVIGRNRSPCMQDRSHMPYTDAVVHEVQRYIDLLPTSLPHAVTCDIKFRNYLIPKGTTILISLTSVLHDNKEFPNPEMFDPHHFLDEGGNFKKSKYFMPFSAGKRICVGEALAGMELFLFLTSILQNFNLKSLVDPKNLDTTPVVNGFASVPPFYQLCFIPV
T3 sequence (P11940 whole entry): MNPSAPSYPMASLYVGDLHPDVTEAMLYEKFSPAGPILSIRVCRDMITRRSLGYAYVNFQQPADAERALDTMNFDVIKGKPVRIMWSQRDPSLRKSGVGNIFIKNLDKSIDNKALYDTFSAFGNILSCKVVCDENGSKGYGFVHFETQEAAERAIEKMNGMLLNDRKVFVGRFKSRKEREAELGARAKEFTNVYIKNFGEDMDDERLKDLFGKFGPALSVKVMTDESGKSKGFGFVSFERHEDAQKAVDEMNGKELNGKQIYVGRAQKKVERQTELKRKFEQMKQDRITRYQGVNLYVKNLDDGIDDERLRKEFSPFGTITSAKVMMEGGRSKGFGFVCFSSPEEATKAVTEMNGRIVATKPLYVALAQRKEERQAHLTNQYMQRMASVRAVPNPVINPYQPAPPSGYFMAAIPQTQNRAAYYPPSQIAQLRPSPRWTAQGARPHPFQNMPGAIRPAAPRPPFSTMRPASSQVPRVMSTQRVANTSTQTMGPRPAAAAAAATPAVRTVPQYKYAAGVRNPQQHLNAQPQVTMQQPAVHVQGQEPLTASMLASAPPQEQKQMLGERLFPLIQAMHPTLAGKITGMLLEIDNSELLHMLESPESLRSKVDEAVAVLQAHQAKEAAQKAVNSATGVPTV
Sequence of Cytochrome P450 2C19 (P33261 whole entry): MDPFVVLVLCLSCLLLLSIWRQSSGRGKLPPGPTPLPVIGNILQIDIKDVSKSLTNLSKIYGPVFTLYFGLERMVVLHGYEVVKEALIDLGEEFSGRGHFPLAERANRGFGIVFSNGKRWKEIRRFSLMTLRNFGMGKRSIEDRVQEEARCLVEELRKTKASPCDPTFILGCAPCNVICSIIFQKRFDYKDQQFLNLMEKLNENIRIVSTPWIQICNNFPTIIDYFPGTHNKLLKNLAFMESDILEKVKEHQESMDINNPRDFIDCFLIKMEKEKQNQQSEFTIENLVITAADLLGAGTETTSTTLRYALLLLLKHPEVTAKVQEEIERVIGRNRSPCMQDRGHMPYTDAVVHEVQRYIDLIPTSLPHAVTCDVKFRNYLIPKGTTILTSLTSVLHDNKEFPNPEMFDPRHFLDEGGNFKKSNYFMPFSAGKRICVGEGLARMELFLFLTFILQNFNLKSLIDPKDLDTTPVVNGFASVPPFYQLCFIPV
Sequence of Genome polyprotein (P29990 2492-3391 limits assumed): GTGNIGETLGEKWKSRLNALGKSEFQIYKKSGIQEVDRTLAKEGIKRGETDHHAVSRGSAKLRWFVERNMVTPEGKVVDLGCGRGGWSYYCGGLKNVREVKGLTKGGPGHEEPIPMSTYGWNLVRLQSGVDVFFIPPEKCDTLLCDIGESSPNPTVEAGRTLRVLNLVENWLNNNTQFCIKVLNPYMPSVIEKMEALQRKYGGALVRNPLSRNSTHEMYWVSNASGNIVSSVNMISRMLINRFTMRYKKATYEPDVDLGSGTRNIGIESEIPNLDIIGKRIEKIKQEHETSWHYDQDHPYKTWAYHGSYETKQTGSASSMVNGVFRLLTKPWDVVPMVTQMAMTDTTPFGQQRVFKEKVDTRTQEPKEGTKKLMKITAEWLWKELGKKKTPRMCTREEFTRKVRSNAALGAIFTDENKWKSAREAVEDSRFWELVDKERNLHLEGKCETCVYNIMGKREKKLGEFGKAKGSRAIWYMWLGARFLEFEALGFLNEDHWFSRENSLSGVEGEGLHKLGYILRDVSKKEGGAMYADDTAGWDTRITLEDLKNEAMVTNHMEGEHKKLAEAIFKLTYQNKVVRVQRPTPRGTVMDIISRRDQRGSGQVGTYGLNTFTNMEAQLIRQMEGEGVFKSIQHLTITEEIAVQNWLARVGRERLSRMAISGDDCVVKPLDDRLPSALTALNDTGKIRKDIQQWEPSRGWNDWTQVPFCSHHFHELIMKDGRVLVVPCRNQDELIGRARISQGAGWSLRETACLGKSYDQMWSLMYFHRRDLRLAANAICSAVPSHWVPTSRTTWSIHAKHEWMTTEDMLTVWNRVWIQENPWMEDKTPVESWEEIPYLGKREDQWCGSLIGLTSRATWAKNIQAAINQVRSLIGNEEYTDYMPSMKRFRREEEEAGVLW

## O=c1c2ccccc2nnn1CSc1nnc(COc2ccc(Cl)cc2)n1Cc1ccco1
[1]
  AC50: 3.26 µM (active)
[2]
  AC50: 15.2 µM (active)
[3]
  AC50: 1.12 µM (active)

## CC(C)(C)OC(=O)NC(Cc1ccccc1)C(=O)N1CCC(C(=O)NCC(=O)Nc2ccc(F)cc2)CC1 (stereo not drawn)
[4]
  EC50: 7.08 µM (active)
[5]
  EC50: 2.04 µM (inconclusive)
[6]
  IC50: > 66 µM (inactive)
[7]
  IC50: > 47.1 µM (inactive)
[8]
  IC50: 28.7 µM (inactive)
[9]
  EC50: > 53 µM (inactive)

## C=CCN(CC(=O)NCc1ccccc1)C(=O)c1csnn1
[7]
  IC50: > 47.1 µM (inactive)
[9]
  EC50: > 53 µM (inactive)

## Cc1cc(C)cc(NC(=O)CCc2nc3ccccc3[nH]2)c1
Cytochrome P450 1A2
  AC50: 3.16 µM (inconclusive)
Cytochrome P450 2C9
  AC50: inconclusive

## O=C(NCc1cccc(Cl)c1)C1CCC(=O)N(CC2CCCCC2)C1 (stereo not drawn)
[7]
  IC50: > 47.1 µM (inactive)
[9]
  EC50: > 53 µM (inactive)

## CNC(=O)C(C)C1CCC2(C)C=CC(=O)C(C)=C2C1O (stereo not drawn)
P388/ADR
  GI50: > 100 µM (inactive)
SN12K1
  GI50: > 100 µM (inactive)
P388
  GI50: > 100 µM (inactive)

## O=C1Nn2c(nc3c(c2=O)CCCC3)/C1=N/Nc1cccc(Cl)c1
Genome polyprotein
  IC50: 62.4 µM (active)
[10]
  IC50: 5.32 µM (active)
[7]
  IC50: 19.2 µM (active)
[9]
  EC50: > 53 µM (inactive)

## Nc1cc(O)c2cc(/N=N/c3ccc(/N=N/c4ccc(/N=N/c5ccc6cc(S(=O)(=O)O)cc(S(=O)(=O)O)c6c5)c5ccccc45)c4cc(S(=O)(=O)O)ccc34)c(S(=O)(=O)O)cc2c1
SN12K1
  GI50: > 100 µM (inactive)
P388
  GI50: > 100 µM (inactive)

## C/C(=N\OC(=O)c1cccc(C)c1)c1sc(-c2ccccc2)nc1C
Cytochrome P450 2C19
  AC50: 8.91 µM (inconclusive)
Cytochrome P450 2C9
  AC50: inconclusive

## O=C1C=CC(=O)N1c1ccc(O)cc1
Large T antigen
  IC50: 81 µM (active)
[1]
  AC50: 3.13 µM (active)
